Laboratory results published in patent US8367733B2 (Vallinex, Inc., priority 2002, dated 2013).
Read-outs that look alike come from different tables or passages of the source.

Key:
[1] = more potent than capsaicin; cited from earlier work
[2] = system: subjects with osteoarthritis of the knee; assay: Osteoarthritis of the knee safety study (Phase 1): safety, tolerability and VAS pain after intra-articular infiltration; type: in vivo, human; details: for patients reporting transient burning pain immediately following instillation: after 2% lignocaine
Procedure: The primary objective of the study was to evaluate the safety and tolerability of intra-articular capsaicin, when co-administered with intra-articular local anesthetic, compared to placebo, in subjects with end-stage osteoarthritis of the knee, already scheduled to receive knee replacements.
Study drug was stored at a temperature between 15° C. and 25° C.
The study was designed to include 16 evaluation subjects. […] Sixteen subjects completed the study.
Patients were treated randomly and in double-blind fashion in four treatment cohorts, with each cohort having a progressively longer interval between the intra-articular administration of study medication and subsequent total knee replacement (2, 4, 7, and 14 days). […] Gross and microscopic pathology analysis was completed for each treatment cohort before the next treatment coort was treated.
Each subject had 3 study visits: a Screening Day (Day −7 to −1), the Treatment Day (Day 0), and a Post-Treatment Day (scheduled for Day +2, +4, +7, or +14). On the Treatment Day the subject was randomized, pre-treatment evaluation was performed. The patients were brought into the procedure room, and a VAS pain score was taken (0 mm—no pain, 100 mm—extreme pain). Once the patient had marked his or her pain on the card, he/she was prepped for knee cannulation. Once the cannula was placed, the patient received by intra-articular infiltration, 3 mg/kg (maximum dose of 200 mg) of 2% lignocaine into the knee scheduled to be replaced.
VAS pain scores as well as verbal reports were taken immediately following administration, as well as prior to knee replacement surgery. No subjects discontinued from the study due to adverse events.
On the Post-Treatment Day, study evaluation was performed followed by the scheduled knee replacement, with intra-operative bone and soft tissue biopsies performed for subsequent examination. […] This therefore left the 3 placebo and 9 active patients from the 4 day, 7 day, and 14 day cohorts.

[3] = cited from earlier work
[4] = system: subjects undergoing transpositional osteotomy (bunionectomy) for hallux valgus deformity; assay: Bunionectomy efficacy study (Phase II), intra-operative infiltration into the wound; type: in vivo, human; details: for VAS pain score at operation site (Table 4): 1000 μg into wound, mean +/− SEM, n = 11
Procedure: The primary efficacy endpoint was the proportion of subjects in each treatment group requiring opioid analgesia in the first 24 hours post-operatively. The proportions were compared amongst treatment groups using the Cochran-Haenszel test. Secondary efficacy end points included: i) proportion of subjects in each treatment group requiring opioid analgesia in the first 36 hour period post-operatively (Similarly, the proportions were compared amongst treatment groups using the Cochran-Haenszel test); ii) proportion of subjects in each treatment group requiring opioid analgesia in the 10 day period post-operatively (Similarly, the proportions were compared amongst treatment groups using the Cochran-Haenszel test); iii) time to first usage of opioid analgesia in each treatment group (a survival analysis approach will be used: the product-limit (Kaplan-Meier) method will be applied to time to first usage of opioid analgesia. The median time to first usage of opioid analgesia will be estimated in both treatment groups. Pairwise comparisons will be performed to test for equality of the survival curves between the 2 treatment groups using both the log-rank and the Wilcoxon test); iv) total usage of analgesia in each treatment group (the total usage of analgesia will be compared by an analysis of variance with treatment and center as independent variables. A pairwise comparison will be performed between the treatment groups); and v) VAS assessment of pain at the site of operation in each treatment group (The VAS score at each time point will be compared by an analysis of variance with treatment and center as independent variables. A pairwise comparison will be performed between the treatment groups). […] The efficacy analysis was performed on the data obtained ten days postoperatively. The safety analysis was performed based on the safety data for the entire study, including the 6 week and 12 week follow-up periods. The blind was broken at the time the efficacy analysis was performed. However, the individual treatment assignment was available to the statistical analysis group only. All other personnel involved in the study, including the Investigator, study monitor and proprietary staff, remained blinded until the entire study was completed.
The study was designed to include 40 evaluation subjects. […] Each subject had six (6) study visits: a Screening Day (Day −28 to −1), an Operation Day (Day 0), and four (4) Follow-up visits (scheduled for Days 3, 10 and weeks 6 and 12).
On Operation Day (Day 0) the following was performed: a) Pre-operation: Prior to the initiation of an ankle block, inclusion/exclusion criteria assessment was performed. […] Immediately prior to wound closure, the Investigator slowly dripped the study medication (4 mL) from a syringe into the wound, ensuring even tissue exposure. The wound was then closed according to normal practices and procedures.
In the 24 hours following administration of study medication, vital signs (supine pulse rate and blood pressure) were recorded at 1, 2, 4 and 24 hours post administration. VAS assessment of pain at the operation site was performed at 1, 4, 8, 12 and 24 hours post administration. In those instances where VAS measurements coincide with blood sampling procedures, the VAS assessment was performed first. […] The quantity of each blood sample was 10 mL. Laboratory safety assessments, e.g., haematology, biochemistry, urinalysis were performed at 24 hours post administration. Adverse events were spontaneously reported by the subject and recorded. Rescue analgesia medication was provided to the subject if required (initially diclofenac 50 mg, repeated at 8 hourly intervals if necessary).

[5] = system: radiation induced hyperalgesia; details: systemic, cited from earlier work
[6] = 10, 100, 300 μg intra-articular

Q: Which “potency compared with capsaicin” value [1] does the source give for C=C(C)[C@]12C[C@@H](C)[C@@]34O[C@](Cc5ccccc5)(O[C@@H]1[C@@H]3C=C(COC(=O)Cc1ccc(O)c(OC)c1)C[C@]1(O)C(=O)C(C)=C[C@@H]41)O2 [Resiniferatoxin, resiniferatoxin] here?
A: 10^3-10^4 fold

Q: Which results are given for COc1cc(CNC(=O)CCCC/C=C/C(C)C)ccc1O [purified capsaicin, N-(4-hydroxy-3-methoxybenzyl)-8-methylnon-trans-6-enamide]?
A: patients reporting transient burning pain immediately following instillation ([2]; 10 μg intra-articular): 0 of 4; subjects requiring intervention for post-injection (hyper)algesia ([2]; 100 μg dose group (n=4)): 1 subject; patients reporting transient burning pain immediately following instillation ([2]; 100 μg intra-articular): 1 of 4; subjects requiring intervention for post-injection (hyper)algesia ([2]; 300 μg dose group (n=4)): 4 subjects; patients reporting transient burning pain immediately following instillation ([2]; 300 μg intra-articular): 4 of 4; VAS reduced, prior to administration vs day of surgery ([2]; 9 active patients of the 4, 7 and 14 day cohorts, doses 10-300 μg pooled): 62±14%; effects on laboratory safety parameters or vital signs [2, 6]: no treatment related effects; effects on soft tissue, cartilage, or bone upon histopathological examination [2, 6]: no treatment related effects; gross and microscopic pathology [2, 6]: normal; signs of erythema, edema, or hemorrhage at the site of injection [2, 6]: no treatment related signs; systemic side effects [2, 6]: No treatment related systemic side effects were seen; tolerability [2, 6]: well tolerated at all dose levels; median decrease from baseline to pre-operative time point in VAS for pain at the target knee, compared with placebo ([2]; all 3 capsaicin dose groups): substantially greater; average duration of post injection hyperalgesia ([2]; all cases): less than thirty minutes; onset of post-administration (hyper)algesia after administration ([2]; all episodes, 100 μg and 300 μg): ≤ 5 min; indication of efficacy on VAS pain ([2]; any of the dose levels (10 μg, 100 μg, 300 μg)): No clear treatment related indication of efficacy; solubility in alcohol, ether, benzene and chloroform [3]: freely soluble; effect on pain score and use of rescue ([4]; 1000 μg into the wound prior to wound closure): reduced both pain score as well as the use of rescue; VAS pain score at operation site (Table 4) ([4]; 8 hr): 5.5 +/− 2.3; VAS pain score at operation site (Table 4) ([4]; 12 hr): 8.2 +/− 3.8; VAS pain score at operation site (Table 4) ([4]; 24 hr): 1.9 +/− 1.0; VAS pain score at operation site (Table 4) ([4]; 48 hr): 5.9 +/− 2.5; study subjects requiring rescue ([4]; 1000 μg prior to wound closure, within 72 hours, n=11, P<0.05 vs placebo): 40%; radiation induced hyperalgesia ([5]; final doses of 25 mg/kg or less prior to ultra violet radiation): prevented radiation induced hyperalgesia; pain threshold ([5]; final doses of 25 mg/kg or less): did not elevate the pain threshold above normal range; pain threshold ([5]; final doses of 50 mg/kg or greater): pain threshold elevated
